Assay results published in patent US10918613B2, “Antioxidant compositions for treatment of inflammation or oxidative damage” (Perio Sciences, LLC, priority 2011, dated 2021).
Like-named read-outs stand apart in the source and are kept apart here.

How the values were obtained:
[1] = system: fibroblasts from human gingival (HGF) and human periodontal ligament (HPDF) cells
Description: A study was done to determine the antioxidant effect on fibroblasts from human gingival (HGF) and human periodontal ligament (HPDF) cells exposed to increasing concentration of cytotoxic metals. HGF and HPDF cells were extracted and seeded with 10% fetal bovine serum (FBS). Both the HGF and HPDF cells were then exposed to one of 3×10^−4M or 2×10^−4M ZnCl2, 2×10^−3M or 1×10^−3M NiCl2, 5×10^−4M or 4×10^−4M CuCl2. Next, the samples were treated with bioactive antioxidant (AO) mixtures at single, double, and triple combinations; resveratrol (R), ferulic acid (F), phloretin (P), and tetrahydrocurcuminoids (T). Both the HGF and HPDF cells were then monitored by MTS, ROS, and BrdU assays.

[2] = system: Oral fibroblasts obtained from human gingival (HGF) tissues
Description: (§1) In dentistry, the use of metals in fillings, braces, bridges and other prosthodontic restorations may form free radicals. […] A study was conducted to determine if oral fibroblasts are susceptible to damage from these agents which elevate reaction oxygen species (ROS). In this study, specific antioxidant (AO) combinations were investigated that counteract the effects of Zn, Cu and Ni on cultured oral fibroblast proliferation and oxidative damage. Oral fibroblasts obtained from human gingival (HGF) tissues were seeded into 96-well plates. After achieving 70% confluence, the cells were pre-treated with Zn, Cu and Ni for 30 and 60 minutes. Thereafter, cells were exposed to 10^-5M of the bioactive AO mixtures; resveratrol (R), ferulic acid (F) phloretin (P) and tetrahydrocurcuminoids (T); (RFT, PFR, PFT) for 24 hours. Cell viability was monitored by MTS assay. The fluorescence response of dichlorodihydrofluorescein diacetate to various ROS was measured.
(§2) A study was conducted to determine if oral fibroblasts are susceptible to damage from these agents by decreasing cell viability and whether specific antioxidants (AO) in combinations can counteract these effects. Oral fibroblasts obtained from human gingival (HGF) tissues were seeded into 96-well plates. After achieving 70% confluence, the cells were pre-treated with Zn, Cu and Ni for 30 and 60 minutes. Thereafter, cells were exposed to 10^-5M of the bioactive AO mixtures at single, double and triple combinations; resveratrol (R), ferulic acid (F), phloretin (P), and tetrahydrocurcuminoids (T) for 24 hours. Cell viability was monitored by MTS assay.

[3] = system: Oral fibroblasts obtained from human gingival (HGF) tissues; assay: MTS cell viability assay of HGF cells pre-treated with Zn, Cu and Ni, then AO mixtures
Description: as §1, §2

[4] = system: IL-1α; assay: IL-1α production by LPS-stimulated PBMCs (multiplex); assay type: cell-based, human; conditions: 1×10^−4M anti-oxidant 2 hrs, then LPS 18 hrs
From the text: (§3) Cell Culture—PBMCs were isolated from buffy coats derived from healthy donors (Sylvan N. Goldman Oklahoma Blood Institute, Oklahoma City, Okla., USA) by density gradient centrifugation (Ficoll-Paque plus; GE Healthcare, Piscataway, N.J., USA). Oleuropein (purity=80.17%) was purchased from Sabinsa Corporation (Payson, Utah, USA). Silymarin (purity≥95%), ferulic acid (purity≥98%), hesperetin (purity≥95%), resveratrol (purity≥99%), and phloretin (purity≥99%) were purchased from Sigma-Aldrich (St Louis, Mo., USA). Dimethyl sulfoxide (DMSO) (purity=99.90%) was purchased from EMD Millipore (Billerica, Mass., USA). Oleuropein, silymarin, ferulic acid, hesperetin, resveratrol and phloretin were provided as 0.1M stock solutions prepared in DMSO by Periosciences Ltd (Dallas, Tex., USA).
(§4) PBMCs were seeded at either 4×10^5 or 1.2×10^6 cells in 96- or 48-well tissue culture plates (BD Biosciences, Franklin Lakes, N.J., USA) respectively. PBMCs were pre-treated with single antioxidants at a concentration of 1×10^−4 M or combinations of antioxidants with a combined concentration of 1×10^−4 M for 2 hrs prior to stimulation. PBMCs were then stimulated for 16 hrs with purified LPS isolated from the bacterium Actinobacillus actinomycetemcomitans, strain Y4 (Aa Y4); a kind gift of Dr Kirkwood, Univ. S.C.) at a concentration of 1 μg/ml in the presence of antioxidants. Media were collected, spun at 1600 RPM and cell-free supernatants transferred to fresh tubes and stored at −20 C. […] After 2 hrs the absorbance at 490 nm was recorded using a 96-well plate reader.
(§5) Human Cytokine Fluorokine MAP kit was purchased from R & D Systems (Minneapolis, Minn., USA). Readouts included TNF-α, IL-1α, IL-1β, IL-1Ra, IL-2, IL-4, IL-5, IL-6, IL-8, IL-10, IL-17, macrophage inflammatory protein (MIP)-1α (MIP-1α), MIP-1β, interferon-γ (IFN-γ), granulocyte-colony stimulating factor (G-CSF), granulocyte macrophage-colony stimulating factor (GM-CSF), macrophage chemotactic protein (MCP-1), CCL5, CXCL5, vascular endothelial growth factor (VEGF), thrombopoietin (TPO) and fibroblast growth factor basic (FGFb). […]

[5] = system: IL-6; assay: IL-6 production by LPS-stimulated PBMCs (multiplex); assay type: cell-based, human; conditions: 1×10^−4M anti-oxidant 2 hrs, then LPS 18 hrs
From the text: as §3, §4, §5

[6] = system: IL-10; assay: IL-10 production by LPS-stimulated PBMCs (multiplex); assay type: cell-based, human; conditions: 1×10^−4M anti-oxidant 2 hrs, then LPS 18 hrs
From the text: as §3, with “Oleuropein, silymarin, ferulic acid, hesperetin, resveratrol and phloretin were provided as 0.1M stock solutions prepared in DMSO by Periosciences Ltd (Dallas, Tex., USA).” left out
(§6) PBMCs were seeded at either 4×10^5 or 1.2×10^6 cells in 96- or 48-well tissue culture plates (BD Biosciences, Franklin Lakes, N.J., USA) respectively. […] After 2 hrs the absorbance at 490 nm was recorded using a 96-well plate reader.
as §5

[7] = system: IFN-γ; assay: IFN-γ production by LPS-stimulated PBMCs (multiplex); assay type: cell-based, human; conditions: 1×10^−4M anti-oxidant 2 hrs, then LPS 18 hrs
From the text: as §3, §4, §5

[8] = system: TNF-α; assay: TNF-α production by Aa Y4 LPS-stimulated PBMCs (ELISA); assay type: cell-based, human; conditions: PBMCs pre-treated 2 hrs with 1×10^−4M anti-oxidant, then LPS 18 hrs
From the text: as §3
PBMCs were seeded at either 4×10^5 or 1.2×10^6 cells in 96- or 48-well tissue culture plates (BD Biosciences, Franklin Lakes, N.J., USA) respectively. PBMCs were pre-treated with single antioxidants at a concentration of 1×10^−4 M or combinations of antioxidants with a combined concentration of 1×10^−4 M for 2 hrs prior to stimulation. […] S.C.) at a concentration of 1 μg/ml in the presence of antioxidants. Media were collected, spun at 1600 RPM and cell-free supernatants transferred to fresh tubes and stored at −20 C. Cell viability was assayed using CellTiter 96® AQueous One Solution Reagent (Promega, Madison, Wis., USA) following the manufacturers guidelines. 20 μl of the reagent was added to each well and incubated for 2 hrs under culture conditions. After 2 hrs the absorbance at 490 nm was recorded using a 96-well plate reader.
ELISA and Multiplex Assays—Human tumour necrosis factor-alpha (TNF-α) capture and detection Abs were purchased from Life Technologies (Carlsbad, Calif., USA) and used for the development of a TNF-α sandwich ELISA according to the manufacturer's instructions. Cell culture supernatants were analyzed using a 96-well plate reader with absorbance at 450 nm (reference 650 nm).
Stimulation of PBMCs with Aa Y4 LPS—To establish the optimal concentrations of anti-oxidants and LPS for this study, dose and kinetic experiments were performed. The doses examined were: 1×10^−4, 1×10^−5 and 1×10^−6M while the challenge concentrations of Aa Y4 LPS were 1, 10, 100 or 1000 ng/ml. Whole blood was stimulated with several concentrations of E. coli or Aa Y4 LPS and TNF-α production quantified by ELISA over 3 time-points: 16, 24 and 48 hrs.

[9] = system: IL-1Ra; assay: IL-1Ra production by LPS-stimulated PBMCs (multiplex); assay type: cell-based, human; conditions: 1×10^−4M anti-oxidant 2 hrs, then LPS 18 hrs
From the text: as §3, with “Oleuropein, silymarin, ferulic acid, hesperetin, resveratrol and phloretin were provided as 0.1M stock solutions prepared in DMSO by Periosciences Ltd (Dallas, Tex., USA).” left out
as §6, §5

[10] = system: G-CSF; assay: G-CSF production by LPS-stimulated PBMCs (multiplex); assay type: cell-based, human; conditions: 1×10^−4M anti-oxidant 2 hrs, then LPS 18 hrs
From the text: Cell Culture—PBMCs were isolated from buffy coats derived from healthy donors (Sylvan N. Goldman Oklahoma Blood Institute, Oklahoma City, Okla., USA) by density gradient centrifugation (Ficoll-Paque plus; GE Healthcare, Piscataway, N.J., USA). Oleuropein (purity=80.17%) was purchased from Sabinsa Corporation (Payson, Utah, USA). […] Dimethyl sulfoxide (DMSO) (purity=99.90%) was purchased from EMD Millipore (Billerica, Mass., USA). Oleuropein, silymarin, ferulic acid, hesperetin, resveratrol and phloretin were provided as 0.1M stock solutions prepared in DMSO by Periosciences Ltd (Dallas, Tex., USA).
PBMCs were seeded at either 4×10^5 or 1.2×10^6 cells in 96- or 48-well tissue culture plates (BD Biosciences, Franklin Lakes, N.J., USA) respectively. PBMCs were pre-treated with single antioxidants at a concentration of 1×10^−4 M or combinations of antioxidants with a combined concentration of 1×10^−4 M for 2 hrs prior to stimulation. PBMCs were then stimulated for 16 hrs with purified LPS isolated from the bacterium Actinobacillus actinomycetemcomitans, strain Y4 (Aa Y4); a kind gift of Dr Kirkwood, Univ. S.C.) at a concentration of 1 μg/ml in the presence of antioxidants. Media were collected, spun at 1600 RPM and cell-free supernatants transferred to fresh tubes and stored at −20 C. Cell viability was assayed using CellTiter 96® AQueous One Solution Reagent (Promega, Madison, Wis., USA) following the manufacturers guidelines. […] After 2 hrs the absorbance at 490 nm was recorded using a 96-well plate reader.

[11] = system: IκB-α mRNA; assay: RT-PCR of IκB-α mRNA in LPS-stimulated PBMCs (NF-κB activation); assay type: cell-based, human
Description: (§7) RT-PCR Assays—Total RNA was extracted from homogenized cells using the miRNeasy kit (Qiagen, Valencia, Calif., USA) according to the manufacturer's protocol. Total RNA quantified on Nanodrop (ThermoScientific, Rockford, Ill., USA) was used for first strand cDNA synthesis using the SS RTIII kit (Life Technologies, Carlsbad, Calif., USA). Real-time PCR was performed using EvaGreen 2× master mix (Biotium, Hayward, Calif., USA), 10 pmol forward and reverse gene specific primers and 1 ul of 1:10 diluted cDNA. GAPDH was used as endogenous control. The fold change was calculated using 2-ΔΔCt method and the control was set at 1. Custom primers were purchased from Sigma-Aldrich (St Louis, Mo., USA). Primer sequences for TNF-α were: Forward, […], Reverse: […]. Primer sequences for IκB-α were: Forward, […], Reverse: […]. Data Analysis—Statistics were performed using two-tailed t-test or one-way analysis of variance (ANOVA). Statistical significance is indicated by an asterisk *, where p≤0.05. Error bars on all graphs indicate standard error of mean (SEM) or standard deviation (SD).
(§8) Inhibition of TNF-α is present at the level of mRNA transcription—Whether the reduced production of inflammatory mediators was due to decreased mRNA transcription was investigated. […] After 4 hrs the cells were harvested, total RNA isolated and RT-PCR performed to measure the levels of TNF-α mRNA present. […]

[12] = system: IL-1β; assay: IL-1β production by LPS-stimulated PBMCs (multiplex, FIG. 9D); assay type: cell-based, human; conditions: 1×10^−4M anti-oxidant 2 hrs, then LPS 18 hrs
From the text: as §3, with “Oleuropein, silymarin, ferulic acid, hesperetin, resveratrol and phloretin were provided as 0.1M stock solutions prepared in DMSO by Periosciences Ltd (Dallas, Tex., USA).” left out
as §6, §5

[13] = system: CCL5; assay: CCL5 production by LPS-stimulated PBMCs (multiplex); assay type: cell-based, human; conditions: 1×10^−4M anti-oxidant 2 hrs, then LPS 18 hrs
From the text: as §3, with “Oleuropein, silymarin, ferulic acid, hesperetin, resveratrol and phloretin were provided as 0.1M stock solutions prepared in DMSO by Periosciences Ltd (Dallas, Tex., USA).” left out
as §6, §5

[14] = system: TNF-α mRNA; assay: RT-PCR of TNF-α mRNA in LPS-stimulated PBMCs; assay type: cell-based, human; conditions: harvested after 4 hrs, 2-ΔΔCt, GAPDH control
Description: as §7, §8

[15] = HGF and HPDF, Example 4 metal concentrations

In the case of `[Cl-].[Cl-].[Zn+2]` [Zn, ZnCl2], the “effect of metal on ROS” value [1, 15] is reported as “little effect on ROS”, the “effect of metal on ROS” value ([2]; HGF cells) is reported as “increased ROS” and the “viable cells after incubation with metal (MTS)” value (from here on “viable cells after incubation”) ([3]; HGF cells, 30 and 60 minutes) is reported as “dose-dependent decrease of viable cells”.
`O=C(CCc1ccc(O)cc1)c1c(O)cc(O)cc1O` [phloretin] was tested, and the “production of IL-1α” value [4] was “inhibited the production”, the “production of IL-6” value [5] was “inhibited the production” and the “production of IL-10” value [6] was “inhibited the production”. The “IFN-γ induced by LPS stimulation” value [7] was “abolished”, the TNF-α production [8] was “Significant inhibition” and the “production of IL-1Ra” value [9] was “inhibited the production”. For the same molecule, the G-CSF production [10] was “inhibited”.
With `[Cl][Ni][Cl]` [Ni, NiCl2] the “effect of metal on ROS” value [1, 15] was “little effect on ROS”, the “effect of metal on ROS” value ([2]; HGF cells) was “increased ROS” and the “viable cells after incubation” value ([3]; HGF cells, 30 and 60 minutes) was “dose-dependent decrease of viable cells”.
`Oc1ccc(C=Cc2cc(O)cc(O)c2)cc1` [resveratrol] was tested, and the “production of IL-1α” value [4] was “inhibited the production”, the “production of IL-6” value [5] was “inhibited the production” and the “production of IL-10” value [6] was “inhibited the production”. The “IFN-γ induced by LPS stimulation” value [7] was “abolished”, the “reduction of IκB-α mRNA expression” value [11] was about 50% and the TNF-α production [8] was “Significant inhibition”. The “production of IL-1Ra” value [9] was “inhibited the production”, the G-CSF production [10] was “inhibited” and the “levels of IL-1β” value [12] was “decreased levels”.
In the case of `[Cl][Cu][Cl]` [Cu, CuCl2], the “effect of metal on ROS” value [1] is reported as “increased ROS”, the “effect of metal on ROS” value [2] is reported as “increased ROS” and the “viable cells after incubation” value [3] is reported as “dose-dependent decrease of viable cells”.
With `COc1ccc([C@@H]2CC(=O)c3c(O)cc(O)cc3O2)cc1O` [hesperetin] the “production of IL-1α” value [4] was “inhibited the production”, the “production of IL-6” value [5] was “inhibited the production” and the “IFN-γ induced by LPS stimulation” value [7] was “abolished”. For the same molecule, the TNF-α production [8] was “Significant inhibition”, the G-CSF production [10] was “inhibited” and the “levels of IL-1β” value [12] was “decreased levels”.
In the case of `COc1cc(/C=C/C(=O)O)ccc1O` [ferulic acid], the “production of CCL5” value [13] is reported as “Apart from ferulic acid”, the TNF-α production [8] is reported as “no observed effect” and the “reduction of TNF-α mRNA expression levels” value [14] is reported as “not”.
